Among the data in DBAASP are MIC values, retold here.

Among the test systems are Streptococcus mutans; Escherichia coli UB1005; Staphylococcus aureus MR; Acinetobacter baumannii; Staphylococcus aureus; Salmonella typhimurium; Bacillus subtilis; Escherichia coli.
Holding throughout (assay): ≥ marks a high value that may be exact or a test limit, other limits are often not marked, values filed in µg/mL are converted to µM
Test [1] concerns Salmonella enterica subsp. enterica serovar Typhimurium C77-31.
The test system of test [2] is Staphylococcus epidermidis ATCC 12228.
In test [3] the test system is Escherichia coli ATCC 25922.
In test [4] the test system is Enterococcus faecalis ATCC 29212.
Test [5] concerns Salmonella enterica subsp. enterica serovar Pullorum C79-13.
Test [6] concerns Staphylococcus aureus ATCC 29213.
Test [7] relates to Pseudomonas aeruginosa ATCC 27853.
Test [8] concerns Salmonella enterica subsp. enterica serovar Typhimurium ATCC 14028.
In test [9] the test system is Candida albicans ATCC 90028.
Test [10] has as its system Acinetobacter baumannii ATCC 19606.
Test [11] has as its system Staphylococcus aureus ATCC 25923.
Test [12] has as its system Escherichia coli NCTC 10418.
Test [13] deals with Bacillus subtilis KCTC 3068.
The test system of test [14] is Pseudomonas aeruginosa KCTC 1637.
Test [15] relates to Staphylococcus epidermidis KCTC 1917.
The test system of test [16] is Escherichia coli KCTC 1682.
Test [17] concerns Staphylococcus aureus KCTC 1621.
For test [18], the system named is Salmonella typhimurium KCTC 1926.

Structures are written as SMILES. Values after ≈ are worked out from the molar mass of the structure shown. Values joined by “and” are separate entries in the source; they are usually repeats but may differ in a detail not shown here. Identical values can stand only once.

In the case of `CC[C@H](C)[C@H](NC(=O)[C@H](Cc1ccccc1)NC(=O)[C@H](Cc1cnc[nH]1)NC(=O)[C@@H](NC(=O)[C@H](Cc1ccccc1)NC(=O)[C@H](CCC(N)=O)NC(=O)[C@H](CCCCN)NC(=O)[C@@H](N)CC(C)C)C(C)C)C(=O)N[C@@H](Cc1cnc[nH]1)C(=O)N[C@@H](CCCN=C(N)N)C(=O)N[C@@H](Cc1ccccc1)C(N)=O` [LKQFVHFIHRF], in the test on Streptococcus mutans, the MIC was 21.7 µM (≈ 32 µg/mL).
Regarding `NCCCC[C@H](NC(=O)[C@H](Cc1c[nH]c2ccccc12)NC(=O)[C@H](CCCN=C(N)N)NC(=O)[C@H](CCCCN)NC(=O)[C@H](CCCN=C(N)N)NC(=O)[C@H](Cc1c[nH]c2ccccc12)NC(=O)[C@@H](N)CCCN=C(N)N)C(=O)O` [RWRKRWK], in the test with Streptococcus mutans, the MIC was at least 224 µM.
The same measure, in the same setting: as for `NCCCC[C@H](NC(=O)[C@H](CCCN=C(N)N)NC(=O)[C@H](CCCN=C(N)N)NC(=O)[C@H](Cc1c[nH]c2ccccc12)NC(=O)[C@H](Cc1c[nH]c2ccccc12)NC(=O)[C@H](CCCN=C(N)N)NC(=O)[C@@H](N)CCCN=C(N)N)C(=O)O` [RRWWRRK], the figure is at least 109 µM.
Consider `CC(C)C[C@H](NC(=O)CNC(=O)CNC(=O)CNC(=O)[C@H](Cc1c[nH]c2ccccc12)NC(=O)[C@H](CCCCN)NC(=O)[C@H](Cc1c[nH]c2ccccc12)NC(=O)[C@H](CCCCN)NC(=O)[C@H](Cc1c[nH]c2ccccc12)NC(=O)[C@H](CCCCN)NC(=O)CNC(=O)[C@H](CC(N)=O)NC(=O)[C@H](CCCCN)NC(=O)[C@H](Cc1c[nH]c2ccccc12)NC(=O)[C@H](CCCCN)NC(=O)[C@H](Cc1c[nH]c2ccccc12)NC(=O)[C@H](CCCCN)NC(=O)[C@@H](N)Cc1c[nH]c2ccccc12)C(=O)N[C@H](C(=O)N[C@H](C(=O)N[C@@H](CC(C)C)C(=O)N[C@H](C(=O)N[C@@H](Cc1ccccc1)C(=O)N[C@H](C(=O)O)C(C)C)C(C)C)[C@@H](C)O)C(C)C` [WKWKWKNGKWKWKWGGGLVTLVFV], for which the MIC in test [1] was at least 128 µM; in [2], 32 µM (≈ 96.6 µg/mL); in test [3], 2 µM (≈ 6.04 µg/mL); in test [4], 16 µM (≈ 48.3 µg/mL); in [5] it was 8 µM (≈ 24.1 µg/mL); in [6], 8 µM (≈ 24.1 µg/mL).
On to `CC(C)C[C@H](NC(=O)[C@H](Cc1ccccc1)NC(=O)[C@@H]1CCCN1C(=O)[C@H](Cc1c[nH]c2ccccc12)NC(=O)[C@@H](N)Cc1c[nH]c2ccccc12)C(=O)N[C@@H](CCCN=C(N)N)C(=O)N[C@@H](CCCN=C(N)N)C(N)=O` [WWPFLRR], for which the MIC is at least 64 µM in [1]; 64 µM (≈ 67.8 µg/mL) in test [7]; at least 128 µM with Escherichia coli UB1005; 32 µM (≈ 33.9 µg/mL) in test [2]; 32 µM (≈ 33.9 µg/mL) in test [8]; 64 µM and 128 µM in test [3]. Further, the MIC was above 128 µM in [4]; at least 64 µM in test [5]; 64 µM and 128 µM in test [6].
On to `CC[C@H](C)[C@H](NC(=O)[C@H](CCCN=C(N)N)NC(=O)[C@H](CCC(N)=O)NC(=O)[C@@H](NC(=O)[C@@H](NC(=O)[C@H](CCCN=C(N)N)NC(=O)[C@@H](N)CCCCN)[C@@H](C)CC)C(C)C)C(=O)N[C@@H](CCCCN)C(=O)N[C@@H](CCCCN)C(=O)N[C@@H](Cc1ccccc1)C(=O)N[C@@H](CC(C)C)C(=O)N[C@@H](CCCN=C(N)N)C(=O)O` [KRIVQRIKKFLR], for which the MIC was 1.25 µM (≈ 1.98 µg/mL) in test [7]; at least 202 µM in the test on Staphylococcus aureus MR; 12.6 µM (≈ 20 µg/mL) in the test with Acinetobacter baumannii; 0.626 µM (≈ 0.992 µg/mL) in test [3]; 2.5 µM (≈ 3.96 µg/mL) in [9]; at least 50.5 µM in [10]. In addition, the MIC in [6] is 1.25 µM (≈ 1.98 µg/mL); in test [11], at least 202 µM.
Consider `C[C@H](N)C(=O)N[C@@H](CCC(N)=O)C(=O)N[C@@H](C)C(=O)N[C@@H](C)C(=O)N[C@@H](CCCCN)C(=O)N[C@@H](CCC(N)=O)C(=O)N[C@@H](C)C(=O)N[C@@H](C)C(=O)N[C@@H](CCCCN)C(=O)N[C@@H](C)C(=O)N[C@@H](C)C(=O)N[C@@H](CCCCN)C(=O)N[C@@H](CCC(N)=O)C(=O)N[C@@H](Cc1ccccc1)C(N)=O` [AQAAKQAAKAAKQF], for which the MIC with Streptococcus mutans is at least 87.3 µM.
With `CC(C)[C@H](NC(=O)CNC(=O)[C@H](CCCN=C(N)N)NC(=O)[C@@H](NC(=O)[C@@H](NC(=O)[C@@H](NC(=O)[C@H](CCCN=C(N)N)NC(=O)CNC(=O)[C@H](Cc1c[nH]c2ccccc12)NC(=O)[C@H](CCCN=C(N)N)NC(=O)[C@@H](NC(=O)[C@@H](NC(=O)[C@@H](NC(=O)CN)C(C)C)C(C)C)C(C)C)C(C)C)C(C)C)C(C)C)C(=O)N[C@@H](CCCN=C(N)N)C(=O)N[C@@H](CCCN=C(N)N)C(N)=O` [GVVVRWGRVVVRGVRR], the MIC with Staphylococcus aureus was 8 µM (≈ 14.8 µg/mL); with Salmonella typhimurium, 4 µM (≈ 7.4 µg/mL); in the test on Bacillus subtilis, 4 µM (≈ 7.4 µg/mL); against Escherichia coli, 8 µM (≈ 14.8 µg/mL).
The molecule `C[C@H](NC(=O)CN)C(=O)N1CCC[C@H]1C(=O)N[C@@H](CCCCN)C(=O)NCC(=O)N[C@H]1CSSC[C@@H](C(=O)N[C@@H](CCCCN)C(N)=O)NC(=O)[C@@H]2CCCN2C(=O)[C@H](CCCCN)NC(=O)[C@@H]2CCCN2C(=O)[C@@H]2CCCN2C(=O)[C@H](Cc2ccc(O)cc2)NC(=O)[C@H](CO)NC(=O)[C@H](CCCCN)NC(=O)[C@H]([C@@H](C)O)NC(=O)[C@H](Cc2c[nH]c3ccccc23)NC1=O` [GAPKGCWTKSYPPKPCK] gave an MIC in [12] of at least 160 µM.
As to `CC[C@H](C)[C@H](NC(=O)CNC(=O)CNC(=O)CNC(=O)[C@H](Cc1cnc[nH]1)NC(=O)[C@H](CC(C)C)NC(=O)[C@H](CC(C)C)NC(=O)[C@H](Cc1cnc[nH]1)NC(=O)[C@H](Cc1cnc[nH]1)NC(=O)[C@H](CC(C)C)NC(=O)[C@H](CCCCN)NC(=O)[C@H](CCCCN)NC(=O)[C@H](CC(C)C)NC(=O)[C@H](CC(C)C)NC(=O)[C@H](CCCN=C(N)N)NC(=O)[C@H](CCCN=C(N)N)NC(=O)[C@H](Cc1c[nH]c2ccccc12)NC(=O)[C@@H](N)CCCN=C(N)N)C(=O)N[C@@H](CCCCN)C(=O)N[C@@H](CCC(N)=O)C(=O)N[C@@H](CC(C)C)C(=O)N[C@@H](CC(C)C)C(=O)N[C@@H](Cc1cnc[nH]1)C(=O)N[C@@H](Cc1ccccc1)C(=O)N[C@@H](Cc1ccccc1)C(=O)N[C@@H](CCC(N)=O)C(=O)N[C@@H](CCCN=C(N)N)C(=O)N[C@@H](Cc1ccccc1)C(N)=O` [RWRRLLKKLHHLLHGGGIKQLLHFFQRF], in the test with Streptococcus mutans, the MIC is 4.52 µM (≈ 16 µg/mL).
Still for that read-out and setting: next, `CC(C)C[C@H](NC(=O)[C@H](CC(C)C)NC(=O)[C@H](Cc1cnc[nH]1)NC(=O)[C@H](Cc1cnc[nH]1)NC(=O)[C@H](CC(C)C)NC(=O)[C@H](Cc1cnc[nH]1)NC(=O)[C@H](CCCCN)NC(=O)[C@H](CC(C)C)NC(=O)[C@H](CC(C)C)NC(=O)[C@H](CCCCN)NC(=O)[C@H](CCCCN)NC(=O)[C@H](CC(C)C)NC(=O)[C@@H](N)CCCCN)C(=O)N[C@@H](Cc1cnc[nH]1)C(N)=O` [KLKKLLKHLHHLLH]: 4.55 µM (≈ 8 µg/mL).
For the molecule `CC[C@H](C)[C@H](NC(=O)[C@H](CCCN=C(N)N)NC(=O)[C@H](CCCCN)NC(=O)[C@H](CCCN=C(N)N)NC(=O)[C@@H](NC(=O)[C@H](CCCN=C(N)N)NC(=O)[C@@H](N)CCCCN)[C@@H](C)CC)C(=O)N[C@@H](CCCCN)C(=O)N[C@@H](CCCCN)C(=O)N[C@@H](Cc1c[nH]c2ccccc12)C(=O)N[C@@H](CCCCN)C(=O)N[C@@H](CCCN=C(N)N)C(N)=O` [KRIRKRIKKWKR], the MIC in [13] is 4 µM (≈ 6.78 µg/mL); in test [14] it was 2 µM (≈ 3.39 µg/mL); in [15] it was 2 µM (≈ 3.39 µg/mL); in test [16], 2 µM (≈ 3.39 µg/mL); in test [17], 4 µM (≈ 6.78 µg/mL); in test [18] it was 2 µM (≈ 3.39 µg/mL).

Usually MIC stands for the least concentration at which growth counts as inhibited.
